B1: Amuc_1409: SEQ ID NO: 15, functional fragment obtained by eliminating the leader sequence from SEQ ID NO: 14; protein derived from Akkermansia muciniphila (protein)
chain: IPESSVPAAAVSSIKGAYPNAGPIEWDSEMHGMERIYEAEFRINGFQFDVKIAPDGKIVRIKEEIAASSLPEAVRASVLKRYPGCRIKEAEKITEGELVRYKVEVADSRDDYDVLIAPDGNILHVDR
modifications: Amuc_1409_fragment
notes: protein derived from Akkermansia muciniphila

Assays:
C2C12 myoblasts = test: Dexamethasone-induced atrophy gene expression in C2C12 myoblasts; assay type: cell-based; details: 64 nM peptide together with dexamethasone (25 μM); RT-qPCR
Method: Myoblast C2C12 (myoblast) was dispensed into a 6 well plate, and then cultured in a DMEM medium containing 10% FBS and 1% antibiotics at 37° C. in a 10% CO2 incubator. Thereafter, in order to induce differentiation, the medium was replaced with a differentiation medium containing 2% horse serum, the C2C12 cells were treated with PEP004 and PEP005 at a concentration of 64 nM during the time for induction of differentiation, and formation of myotubes was observed.
After differentiation of myoblasts, the cells were treated with dexamethasone (25 μM), which causes muscle atrophy, and PEP004 and PEP005 simultaneously, and then RNA was extracted from the cells using Trizol. Reverse transcriptase was added to the obtained RNA and reacted to synthesize cDNA, and SYBR Green and primers were added to perform quantitative real-time PCR (RT-qPCR). Expression levels of Atrogin-1 and MuRF1, which are factors involved in muscle atrophy, were measured to determine whether atrophy of differentiated myoblasts was inhibited.

[1] = test system: APP/PS1 Alzheimer's disease mice; test: Novel object recognition test in APP/PS1 Alzheimer's disease mice; assay type: in vivo; details: oral for 8 weeks; vs vehicle
Method: To 5-month-old APP/PS1 Alzheimer's disease male mice with amyloid deposition and cognitive and memory disorder in the brain, Amuc_1409 was orally administered to the mice by 5 μg daily 5 days a week for 8 weeks. PEP001 was dissolved in PBS buffer at a concentration of 2.4 μM, and then orally administered to the mice by 150 μL per animal 5 days a week for 8 weeks. To the control group (vehicle), PBS was orally administered in the same volume. In addition, normal mice (Non-Tg) not administered with the novel protein fragments were used as a control group.
In order to test the effect of improving cognitive function in APP/PS1 Alzheimer's disease mice administered with Amuc_1409 and PEP001, a novel object recognition test was performed. When the object seen 24 hours ago and a novel object were provided, the exploration time and the number of explorations for the novel object were measured to test cognition and memory.

naturally aged mice = test: NORT and Y-maze alteration test in naturally aged mice; assay type: in vivo, C57BL6/J mice; details: oral; for spontaneous alteration, Y-maze alteration test: 0.2 μg daily 5 days a week for 8 weeks, vs PBS buffer
Method: An experiment was conducted to verify the efficacy of the peptides of the present invention in an animal model of cognitive/memory disorder due to natural aging.
Amuc_1409 was orally administered to 16.5-month-old male mice by 4.5 μg daily 5 days a week for 8 weeks, and PEP002, PEP003, PEP004, or PEP005 was dissolved in PBS buffer at a concentration of 2.4 μM and then orally administered to 16-month-old male mice by 150 μL per animal at the same time once a day for 3 weeks. To the control group (vehicle), PBS was orally administered in the same volume.
In the case of the groups administered with the novel tetrapeptides and tripeptides (PEP006 to PEP013), each peptide was orally administered to 19-month-old female C57BL6/J mice by 0.2 μg daily 5 days a week for 8 weeks. At this time, the peptide was dissolved in PBS buffer and orally administered to the mice at 0.2 μg/150 μL per animal at the same time once a day. To the vehicle group, PBS was orally administered in the same volume. At this time, 4-month-old female C57BL6/J mice were used as a young control group.
A novel object recognition test (NORT) was performed to test the effect of improving cognitive function in naturally aged mice. When the object seen 24 hours ago and a novel object were provided, the exploration time and the number of explorations for the novel object were measured to test cognition and memory. In addition, a Y-maze alteration test was performed to confirm the effect of enhancing spatial perception and memory. In the Y-maze alteration test, spontaneous alteration (%) was evaluated by measuring the order of entering each Y-shaped maze (A, B and C). […] The spontaneous alteration was calculated and expressed as the total number of alterations/(total number of entries−2)×100.

BTBR mice = test: Social (sniffing) behavior in BTBR developmental disability model; assay type: in vivo; details: oral, after 4 weeks of administration; vs vehicle
Method: In order to verify the efficacy of the peptides of the present invention on developmental disability, BTBR mice (BTBR T^+ltpr3^tf/J (BTBR)), a developmental disability model, were used as an experimental animal.
To 3-week-old male BTBR mice, Amuc_1409 was orally administered by 5 μg daily 5 days a week, and PBS (phosphate-buffered saline) was administered to the control group. PEP001, PEP002, PEP003, PEP004, and PEP005 were each dissolved in PBS buffer at a concentration of 2.4 μM and orally administered to the mice by 150 μL per animal at the same time once a day 5 days a week, and novel tetrapeptides PEP006, PEP007, PEP008, PEP009, and PEP010 and novel tripeptides PEP011 and PEP013 were each dissolved in PBS buffer at 0.2 μg/150 μL and orally administered to the mice by 150 μL per animal at the same time once a day 5 days a week. After 4 weeks of administration, behavioral evaluation was performed by observing the social behavior of the mice. The mice were allowed to freely consume sterilized feed and water in a breeding facility in a specific pathogen free environment where the temperature was maintained at 22° C. to 24° C., and were bred while maintaining a 12-hour day/night cycle.

[2] = test system: Human skin keratin cell line (HaCaT); test: UVB photoaging gene expression in human skin keratinocytes; assay type: cell-based; details: 30 nM; UVB 10 mJ/cm^2; vs control group irradiated with UVB
Method: An experiment was conducted to examine the skin regeneration ability of the peptides of the present invention. Human skin keratin cell line (HaCaT) was cultured in DMEM medium containing 10% fetal bovine serum (FBS) and 1% penicillin-streptomycin at 37° C. and 5% CO2. When the cell density reached 80%, the cells were dispensed into a 6-well plate at 4×10^5 cells per well and cultured for 24 hours. After 24 hours, the cells were treated with Amuc 1409 at a concentration of 30 nM for 1 hour, washed twice with PBS (phosphate buffered saline) after 1 hour, and irradiated with ultraviolet light at 10 mJ/cm^2 using an ultraviolet (UVB) irradiation device (CL-1000 UV crosslinker; UVP, USA). After UV irradiation, the medium was replaced with serum-free medium, and the cells were immediately treated with Amuc_1409 for 8 hours.
In relation to skin wrinkles due to skin aging, in order to examine the expression of MMP-1 and MMP-3 genes, which are collagenase, and Col1a1 and Col3a1 genes, which are collagen synthesis enzymes, RNA was isolated from the cells in each well using Trizol (Invitrogen, USA) and quantified by nanodrop, and then cDNA was synthesized using 1 μg of each RNA. A mixture obtained by adding MMP-1, MMP-3, Col1a1 and Col3a1 primers and fluorescent dye AccuPower® 2× GreenStar™ qPCR Master Mix (BIONEER, Korea) to the synthesized cDNA was subjected to real-time polymerase chain reaction in a real-time PCR machine.

Row | Molecule | expression of Atrogin-1 (C2C12 myoblasts) | expression of MuRF1 (C2C12 myoblasts) | cognition and memory, novel object recognition test [1] | spontaneous alteration, Y-maze alteration test (naturally aged mice) | further results
1 | AVS (AVSSIKGAY) [PEP004] | significantly decreased | significantly decreased |  |  | 
2 | AVSSIKGAY (PEP001) |  |  | significantly improved |  | 
3 | GAY [PEP005] | significantly decreased | significantly decreased |  |  | 
4 | IGAY (PEP008) |  |  |  | significantly improved | 
5 | VGAY (PEP010) |  |  |  | significantly improved | 
6 | B1 |  |  | significantly improved |  | cognition and memory, novel object recognition test (naturally aged mice; naturally aged mice, vs control group): significantly improved or tended to be improved; social behavior (sniffing time and frequency) (BTBR mice): significantly increased or tended to increase; expression of Col1a1 gene [2]: significantly increased; expression of Col3a1 gene [2]: significantly increased; expression of MMP-1 gene [2]: significantly decreased; expression of MMP-3 gene [2]: significantly decreased

Source: patent publication US20240209022A1, “NOVEL PEPTIDE HAVING ANTI-INFLAMMATORY AND TISSUE REGENERATIVE ACTIONS” (KOREA RESEARCH INSTITUTE OF BIOSCIENCE AND BIOTECHNOLOGY, priority 2020, published 2024)
